Data taken from patent US20190000829A1, “THERAPEUTIC AGENT FOR BILIARY TRACT CANCER” (Eisai R&D Management Co., Ltd., priority 2015, published 2019).

What was measured:
[1] = system: human cholangiocarcinoma cell line (OZ cell line); assay: Tumor growth-inhibitory effect in model subcutaneously transplanted with human cholangiocarcinoma cell line (OZ); assay type: in vivo; details: OZ subcutaneous xenograft, nude mice; mesylate of compound A 1, 3, 10, 30, 100 mg/kg orally once a day for 14 days
Procedure: An antitumor effect produced by administration of compound A was evaluated with five nude mice in each group (CAnN.Cg-Foxn1^nu/CrlCrlj, female, Charles River Laboratories Japan, Inc.). The human-derived cholangiocarcinoma OZ cell lines (JCRB Cell Bank) were suspended in Williams'E (Sigma-Aldrich Corporation, supplemented with 2 mmol/L L-glutamine and 10% FBS) at a concentration of 2×10^8 cells/mL and were mixed well. The cell suspension was further mixed with an equal amount of Matrigel basement membrane matrix (Corning Incorporated) to prepare a cell suspension at 1×10^8 cells/mL, and aliquots of 0.1 mL were subcutaneously transplanted into the right flank of each mouse. Thirteen days after transplantation, the longest diameter and the short axis of the tumors were measured by an electronic digital caliper (ABS Digimatic Caliper, Mitutoyo Corporation). The mice were divided into groups so that the average of tumor volumes of each group became approximately equal. In this regard, the tumor volume was calculated according to the following formula.
(§1) Tumor volume (mm^3)=longest diameter (mm)×short axis (mm)×short axis (mm)/2 […]
The tumor volume was measured on the day when the administration was started (Day 1), Day 5, Day 8, and Day 12, and the clay following the last day of administration (Day 15). […]

[2] = system: human extrahepatic cholangiocarcinoma cell line (TFK-1 cell line); assay: Tumor growth-inhibitory effect in model subcutaneously transplanted with human extrahepatic cholangiocarcinoma cell line (TFK-1); assay type: in vivo; details: TFK-1 subcutaneous xenograft, nude mice; mesylate of compound A 1, 3, 10, 30, 100 mg/kg orally once a day for 14 days
Procedure: An antitumor effect produced by administration of compound A was evaluated with six nude mice in each group (CAnN.Cg-Foxn1^nu/CrlCrlj, female, Charles River Laboratories Japan, Inc.). The human-derived extrahepatic cholangiocarcinoma TFK-1 cell lines (Riken BioResource Center) were suspended in RPMI1640 medium (Wako Pure Chemical Industries, Ltd., supplemented with 10% FBS) at a concentration of 2×10^8 cells/mL and were mixed well. The cell suspension was further mixed with an equal amount of Matrigel basement membrane matrix (Corning Incorporated) to prepare a cell suspension at 1×10^8 cells/mL, and aliquots of 0.1 mL were subcutaneously transplanted into the right flank of each mouse. Seven days after transplantation, the longest diameter and the short axis of the tumors were measured by an electronic digital caliper (ABS Digimatic Caliper, Mitutoyo Corporation). The mice were divided into groups so that the average of tumor volumes of each group became approximately equal. In this regard, the tumor volume was calculated according to the following formula.
as §1
(§2) The tumor volume was measured on the day when the administration was started (Day 1), Day 4, Day 8, and Day 11, and the day following the last day of administration (Day 15). […]

[3] = system: unresectable biliary tract cancer; assay: Multicenter, unblinded, phase II clinical trial in patients with unresectable biliary tract cancer after combination chemotherapy involving gemcitabine (interim analysis); assay type: in vivo, human
Source text: This clinical trial was a multicenter, single-group, unblinded clinical trial for patients with a prior treatment history who had received one regimen using two-drug combination chemotherapy involving gemcitabine (two-drug combination chemotherapy using gemcitabine and cisplatin, or gemcitabine and another platinum-based drug or a fluorinated pyrimidine drug) for their unresectable biliary tract cancers.
This clinical trial was composed of three periods, which were a pretreatment period, an administration period, and a follow-up period. During the pretreatment period, screening was performed within 21 days. The administration period was composed of administration of mesylate of compound A as an investigational drug in each cycle and tumor assessment performed every 6 to 8 weeks. The follow-up period was started immediately after the day when administration was discontinued and was continued while the subject was alive until withdrawal of consent by the subject or completion of the clinical trial.
The investigational drug, mesylate of compound A, was administered orally once a day in a cycle of 28 days at a dose of 24 mg in terms of compound A in free form, and administration was continued until disease progression, an unacceptable adverse event, withdrawal of consent by the subject, or the like occurred.
The primary objective of the clinical trial was to determine an objective response rate (ORR) of the investigational drug for patients with an unresectable biliary tract cancer after combination chemotherapy involving gemcitabine.
The secondary objective of the clinical trial was to determine a progression-free survival (PFS), an overall survival (OS), a disease control rate (DCR), a clinical benefit rate (CBR), adverse events (AEs), and the number of subjects who developed serious adverse events (SAEs), and a blood concentration. In this context, ORR is defined as a rate of subjects with their best overall response (BOR) being complete response (CR) or partial response (PR). […]

[4] = system: human carcinoma of the ampulla of Vater cell line (SNU-869 cell line); assay: Tumor growth-inhibitory effect in model subcutaneously transplanted with human carcinoma of the ampulla of Vater cell line (SNU-869); assay type: in vivo; details: SNU-869 subcutaneous xenograft, nude mice; mesylate of compound A 1, 3, 10, 30, 100 mg/kg orally once a day for 14 days
Procedure: An antitumor effect produced by administration of compound A was evaluated with six nude mice in each group (CAnN.Cg-Foxn1^nu/CrlCrlj, female, Charles River Laboratories Japan, Inc.). The human-derived human carcinoma of the ampulla of Vater SNU-869 cell lines (Creative Bioarray) were suspended in RPMI1640 medium (Wako Pure Chemical Industries, Ltd., supplemented with 25 mM HEPES and 10% FBS) at a concentration of 2×10^8 cells/mL and were mixed well. The cell suspension was further mixed with an equal amount of Matrigel basement membrane matrix (Corning Incorporated) to prepare a cell suspension at 1×10^8 cells/mL, and aliquots of 0.1 mL were subcutaneously transplanted into the right flank of each mouse. Seven days after transplantation, the longest diameter and the short axis of the tumors were measured by an electronic digital caliper (ABS Digimatic Caliper, Mitutoyo Corporation). The mice were divided into groups so that the average of tumor volumes of each group became approximately equal. In this regard, the tumor volume was calculated according to the following formula.
as §1, §2

COc1cc2nccc(Oc3ccc(NC(=O)NC4CC4)c(Cl)c3)c2cc1C(N)=O [compound A, 4-[3-chloro-4-(cyclopropylaminocarbonyl)aminophenoxy]-7-methoxy-6-quinolinecarboxamide]
antitumor effect (tumor volume on Day 15 vs control) [1]: dose-dependent antitumor effect
antitumor effect (tumor volume on Day 15 vs control) [2]: dose-dependent antitumor effect
stable disease (SD, 6 weeks or more), percentage of patients ([3]; 17 patients, mesylate of compound A orally once a day, 24 mg in terms of free form, 28-day cycles, 13 patients): 76.5%
partial response (PR), percentage of patients ([3]; 17 patients, mesylate of compound A orally once a day, 24 mg in terms of free form, 28-day cycles, one patient): 5.9%
tendency for tumor regression, number of patients ([3]; among 13 SD patients, 24 mg orally once a day): 8 patients
antitumor effect (tumor volume on Day 15 vs control) [4]: dose-dependent antitumor effect
